{"source": "the supplement of paper PMC10307832", "experiment_in_all_cases": "relative viability (nuclei count vs DMSO), 5 days (fraction); higher = more cells survive", "key": {"[1]": {"compound": "C[C@@H](N)c1ccc(C(=O)Nc2ccnc3[nH]ccc23)cc1 + CS(=O)(=O)N1CCN(Cc2cc3nc(-c4cccc5[nH]ncc45)nc(N4CCOCC4)c3s2)CC1 [Pictilisib] (partner 1 µM)", "how_it_was_run": "(§1)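 Relative viability equals treated-well nuclei counts divided by vehicle-well nuclei counts. Counts came from 4× images of lung cancer cell lines grown in 1536-well plates for 5 days after pin-tool dosing on the day after seeding. Dosing used one drug alone or a fixed anchor-drug dose plus five library-drug doses (not always all listed) in √10 steps, and values are medians of duplicate plates.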"}, "[2]": {"compound": "C1CNCCC1C2=CC(=NN2)C3=CC=NC=C3 + Cc1cc(Nc2cc(N3CCN(C)CC3)nc(Sc3ccc(NC(=O)C4CC4)cc3)n2)n[nH]1 [Tozasertib] (partner 0.1 µM)", "how_it_was_run": "as §1"}, "[3]": {"compound": "C1CNCCC1C2=CC(=NN2)C3=CC=NC=C3 + N=C(N)NC(=N)NCCc1ccccc1 [Phenformin] (partner 250 µM)", "how_it_was_run": "as §1"}, "[4]": {"compound": "C1CNCCC1C2=CC(=NN2)C3=CC=NC=C3 + COc1cccc2cc(-c3nc([C@H]4CC[C@H](C(=O)O)CC4)n4ncnc(N)c34)[nH]c12 [OSI-027] (partner 0.5 µM)", "how_it_was_run": "as §1"}}}
{"cell line": "UMC-11", "values": [{"measurement": "relative viability", "setting": "[1]; first compound 0.04 µM", "value": 0.715}, {"measurement": "relative viability", "setting": "[1]; first compound 0.1265 µM", "value": 0.759}, {"measurement": "relative viability", "setting": "[1]; first compound 0.4 µM", "value": 0.93}, {"measurement": "relative viability", "setting": "[1]; first compound 1.265 µM", "value": 0.177}, {"measurement": "relative viability", "setting": "[1]; first compound 4 µM", "value": 0.767}, {"measurement": "relative viability", "setting": "[2]; first compound 0.08 µM", "value": 0.196}, {"measurement": "relative viability", "setting": "[2]; first compound 0.8 µM", "value": 0.214}, {"measurement": "relative viability", "setting": "[2]; first compound 2.53 µM", "value": 0.205}, {"measurement": "relative viability", "setting": "[2]; first compound 8 µM", "value": 0.207}, {"measurement": "relative viability", "setting": "[3]; first compound 0.08 µM", "value": 0.325}, {"measurement": "relative viability", "setting": "[3]; first compound 0.8 µM", "value": 0.209}, {"measurement": "relative viability", "setting": "[3]; first compound 2.53 µM", "value": 0.348}, {"measurement": "relative viability", "setting": "[3]; first compound 8 µM", "value": 0.351}, {"measurement": "relative viability", "setting": "[4]; first compound 0.08 µM", "value": 0.452}, {"measurement": "relative viability", "setting": "[4]; first compound 0.8 µM", "value": 0.537}, {"measurement": "relative viability", "setting": "[4]; first compound 2.53 µM", "value": 0.459}, {"measurement": "relative viability", "setting": "[4]; first compound 8 µM", "value": 0.553}]}
